Assay results reported in US11590116B2 (THERAVANCE BIOPHARMA R&D IP, LLC, priority 2019, dated 2023).

Key:
[1] = target: T1, recombinant human ALK5 (TGF-βR1) protein (Homo sapiens, UniProt P36897); test: Biochemical ALK5 (TGF-βR1) assay to measure pKi (LANCE Ultra ULight kinase assay); conditions: apparent pKi from pIC50 by Cheng-Prusoff, read-out: ALK5 pKi (converted)
T1 construct: purchased Life Technologies PR9075A
T1 sequence (P36897 34-503): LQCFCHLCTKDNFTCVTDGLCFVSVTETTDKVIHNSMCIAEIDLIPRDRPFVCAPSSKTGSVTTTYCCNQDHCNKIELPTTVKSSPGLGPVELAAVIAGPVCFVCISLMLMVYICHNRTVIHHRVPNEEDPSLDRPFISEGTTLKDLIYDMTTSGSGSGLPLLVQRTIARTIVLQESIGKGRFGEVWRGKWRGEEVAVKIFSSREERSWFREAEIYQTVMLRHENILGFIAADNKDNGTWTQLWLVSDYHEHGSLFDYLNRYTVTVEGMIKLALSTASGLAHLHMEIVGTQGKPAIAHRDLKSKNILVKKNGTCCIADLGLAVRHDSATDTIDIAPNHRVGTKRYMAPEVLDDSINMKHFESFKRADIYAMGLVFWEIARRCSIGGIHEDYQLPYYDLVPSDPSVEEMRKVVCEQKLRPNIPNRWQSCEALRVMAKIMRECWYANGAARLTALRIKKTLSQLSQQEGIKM
How it was run: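 Compounds (10 μM to 25 pM) were preincubated 60 min at room temperature with enzyme, then reactions were started with ATP (125 μM stock, 5× final) and run 60 min at 37 °C. EDTA-containing Eu-anti-phospho-Topo IIα (Thr1342) antibody stopped the reaction; TR-FRET read at 665 nm. pIC50 from 4-parameter fit, converted to pKi via Cheng-Prusoff.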

[2] = tested on: TGF-β-stimulated SMAD3 phosphorylation in BEAS-2B cells; test: Cellular ALK5 potency assay, inhibition of TGF-β stimulated pSMAD3 formation in BEAS-2B cells; type: cell-based; conditions: Homo sapiens; inhibition of TGF-β stimulated pSMAD3 formation, BEAS-2B cells; read-out: BEAS2B pIC50 (converted)
How it was run: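 BEAS-2B human lung epithelial cells, seeded overnight, were pre-treated with compound in HBSS/25 mM HEPES/1% BSA for 1 h at 37 °C, then stimulated with TGF-β (final 10 ng/mL) for 30 min. Lysates were assayed for pSMAD3 by AlphaLISA; pIC50 came from dose-dependent signal change versus TGF-β-stimulated untreated cells.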

Ki [1] | SMILES | IC50 [2]
0.0398 to 0.316 nM | Cc1cccc(-c2[nH]cnc2-c2ccc3ncc(C4=C[C@H](C)N[C@H](C)C4)cc3c2)n1 [Compound 451, 3-[(2R,6S)-2,6-dimethyl-1,2,3,6-tetrahydropyridin-4-yl]-6-[5-(6-methyl-2-pyridyl)-1H-imidazol-4-yl]quinoline] | 25.1 to 158 nM
< 0.0316 nM | Cc1cccc(-c2[nH]cnc2-c2ccc3ncc(C4=CCC(N(C)C)CC4)cc3n2)n1 (stereo not drawn) [Compound 452, N,N-dimethyl-4-[6-[5-(6-methyl-2-pyridyl)-1H-imidazol-4-yl]-1,5-naphthyridin-3-yl]cyclohex-3-en-1-amine] | 25.1 to 158 nM
0.398 to 3.16 nM | Cc1nc(-c2nc3ccccn3c2-c2ccc3ncc(Br)cc3n2)ccc1F [Compound 453, 7-bromo-2-[2-(5-fluoro-6-methyl-2-pyridyl)imidazo[1,2-a]pyridin-3-yl]-1,5-naphthyridine] | 1580 to 10000 nM
< 0.0316 nM | Cc1cc(-c2cnc3ccc(-c4c[nH]nc4-c4cccc(C)n4)nc3c2)ccn1 [Compound 454, 7-(2-methyl-4-pyridyl)-2-[3-(6-methyl-2-pyridyl)-1H-pyrazol-4-yl]-1,5-naphthyridine] | < 20 nM
0.0398 to 0.316 nM | Cc1nc(-c2n[nH]cc2-c2ccc3ncc(-c4cnn(CC5CC(N)C5)c4)cc3n2)ccc1F (stereo not drawn) [Compound 455, 3-[[4-[6-[3-(5-fluoro-6-methyl-2-pyridyl)-1H-pyrazol-4-yl]-1,5-naphthyridin-3-yl]pyrazol-1-yl]methyl]cyclobutanamine] | 25.1 to 158 nM
< 0.0316 nM | Cc1cccc(-c2[nH]cnc2-c2ccc3ncc(C4=CCC(NCC5CCOC5=O)CC4)cc3c2)n1 (stereo not drawn) [Compound 456, 3-[[[4-[6-[5-(6-methyl-2-pyridyl)-1H-imidazol-4-yl]-3-quinolyl]cyclohex-3-en-1-yl]amino]methyl]tetrahydrofuran-2-one] | < 20 nM
0.0398 to 0.316 nM | Cc1nc(-c2nc3ccccn3c2-c2ccc3ncc(N4CCNCC4)cc3c2)ccc1F [Compound 457, 6-[2-(5-fluoro-6-methyl-2-pyridyl)imidazo[1,2-a]pyridin-3-yl]-3-piperazin-1-yl-quinoline] | 25.1 to 158 nM
< 0.0316 nM | Cc1nc(-c2n[nH]cc2-c2ccc3ncc(-c4cnn(C5CCCNC5)c4)cc3c2)ccc1F (stereo not drawn) [Compound 458, 6-[3-(5-fluoro-6-methyl-2-pyridyl)-1H-pyrazol-4-yl]-3-[1-(3-piperidyl)pyrazol-4-yl]quinoline] | < 20 nM
0.0398 to 0.316 nM | Cc1cccc(-c2[nH]cnc2-c2ccc3ncc(N4CC(N)C4)cc3c2)n1 [Compound 460, 1-[6-[5-(6-methyl-2-pyridyl)-1H-imidazol-4-yl]-3-quinolyl]azetidin-3-amine] | 25.1 to 158 nM
0.0398 to 0.316 nM | Cc1cccc(-c2[nH]cnc2-c2ccc3ncc(C4=CCC(C(=O)O)CC4)cc3c2)n1 (stereo not drawn) [Compound 461, 4-[6-[5-(6-methyl-2-pyridyl)-1H-imidazol-4-yl]-3-quinolyl]cyclohex-3-ene-1-carboxylic acid] | 25.1 to 158 nM
0.0398 to 0.316 nM | Cc1cccc(-c2n[nH]cc2-c2ccc3ncc(-c4nc(C(F)(F)F)n5c4CNCC5)cc3n2)n1 [Compound 465, 2-[3-(6-methyl-2-pyridyl)-1H-pyrazol-4-yl]-7-[3-(trifluoromethyl)-5,6,7,8-tetrahydroimidazo[1,5-a]pyrazin-1-yl]-1,5-naphthyridine] | 25.1 to 158 nM
0.0398 to 0.316 nM | Cc1nc(-c2n[nH]cc2-c2ccc3ncc(-c4nnn5c4CNCC5)cc3n2)ccc1F [Compound 466, 2-[3-(5-fluoro-6-methyl-2-pyridyl)-1H-pyrazol-4-yl]-7-(4,5,6,7-tetrahydrotriazolo[1,5-a]pyrazin-3-yl)-1,5-naphthyridine] | 25.1 to 158 nM
0.0398 to 0.316 nM | Cc1cccc(-c2[nH]cnc2-c2ccc3ncc(NCCN4CCN(C(C)C)CC4)cc3c2)n1 [Compound 467, N-[2-(4-isopropylpiperazin-1-yl)ethyl]-6-[5-(6-methyl-2-pyridyl)-1H-imidazol-4-yl]quinolin-3-amine] | 25.1 to 158 nM
0.0398 to 0.316 nM | Cc1cccc(-c2n[nH]c(NCCN3CCOCC3)c2-c2ccc3ncc(-c4ccncc4)cc3n2)n1 [Compound 468, 3-(6-methylpyridin-2-yl)-N-(2-morpholinoethyl)-4-(7-(pyridin-4-yl)-1,5-naphthyridin-2-yl)-1H-pyrazol-5-amine] | 200 to 1260 nM
0.0398 to 0.316 nM | Cc1cccc(-c2nc3ccccn3c2-c2ccc3ncc(-c4cn[nH]c4)cc3n2)n1 [Compound 469, 2-(2-(6-methylpyridin-2-yl)imidazo[1,2-a]pyridin-3-yl)-7-(1H-pyrazol-4-yl)-1,5-naphthyridine] | < 20 nM
0.398 to 3.16 nM | Cc1cccc(-c2n[nH]cc2-c2ccc3ncc(C4CCNCC4)cc3n2)n1 [Compound 470, 2-[3-(6-methyl-2-pyridyl)-1H-pyrazol-4-yl]-7-(4-piperidyl)-1,5-naphthyridine] | 25.1 to 158 nM
0.0398 to 0.316 nM | CNCc1c(-c2cn[nH]c2)cnc2ccc(-c3c[nH]nc3-c3cccc(C)n3)cc12 [Compound 471, N-methyl-1-[6-[3-(6-methyl-2-pyridyl)-1H-pyrazol-4-yl]-3-(1H-pyrazol-4-yl)-4-quinolyl]methanamine] | 25.1 to 158 nM
0.0398 to 0.316 nM | Cc1cccc(-c2nc3ccccn3c2-c2ccc3ncc(N4CCNCC4)cc3n2)n1 [Compound 473, 2-[2-(6-methyl-2-pyridyl)imidazo[1,2-a]pyridin-3-yl]-7-piperazin-1-yl-1,5-naphthyridine] | 25.1 to 158 nM
< 0.0316 nM | Cc1nc(-c2n[nH]cc2-c2ccc3ncc(-c4cnn(CC5CNC5)c4)cc3n2)ccc1F [Compound 474, 7-[1-(azetidin-3-ylmethyl)pyrazol-4-yl]-2-[3-(5-fluoro-6-methyl-2-pyridyl)-1H-pyrazol-4-yl]-1,5-naphthyridine] | 25.1 to 158 nM
0.0398 to 0.316 nM | Cc1cccc(-c2nnn(Cc3ccccc3)c2-c2ccc3ncc(N4CCC(N5CCN(C)CC5)CC4)cc3n2)n1 [Compound 475, 2-[3-benzyl-5-(6-methyl-2-pyridyl)triazol-4-yl]-7-[4-(4-methylpiperazin-1-yl)-1-piperidyl]-1,5-naphthyridine] | 200 to 1260 nM
0.0398 to 0.316 nM | Cc1cccc(-c2[nH]cnc2-c2ccc3ncc(NCCN4CC(N)C4)cc3c2)n1 [Compound 476, N-[2-(3-aminoazetidin-1-yl)ethyl]-6-[5-(6-methyl-2-pyridyl)-1H-imidazol-4-yl]quinolin-3-amine] | 25.1 to 158 nM
< 0.0316 nM | CNCCn1cc(-c2cnc3ccc(-c4c[nH]nc4-c4ccc(F)c(C)n4)nc3c2)cn1 [Compound 477, 2-[4-[6-[3-(5-fluoro-6-methyl-2-pyridyl)-1H-pyrazol-4-yl]-1,5-naphthyridin-3-yl]pyrazol-1-yl]-N-methyl-ethanamine] | < 20 nM
< 0.0316 nM | Cc1cccc(-c2n[nH]cc2-c2ccc3ncc(NCCN4CCN(C(C)C)CC4)cc3n2)n1 [Compound 478, N-[2-(4-isopropylpiperazin-1-yl)ethyl]-6-[3-(6-methyl-2-pyridyl)-1H-pyrazol-4-yl]-1,5-naphthyridin-3-amine] | 25.1 to 158 nM

SMILES | Ki [1] | IC50 [2]
Cc1cccc(-c2[nH]cnc2-c2ccc3ncc(C4=CCNCC4)cc3c2)n1 [Compound 472, 6-[5-(6-methyl-2-pyridyl)-1H-imidazol-4-yl]-3-(1,2,3,6-tetrahydropyridin-4-yl)quinoline] | < 0.0316 nM | < 20 nM
